{"source": "ChEMBL document CHEMBL3774329", "about": "“Synthesis and Evaluation of Oxyguanidine Analogues of the Cysteine Protease Inhibitor WRR-483 against Cruzain” (ACS Med Chem Lett, 2016)", "key": {"[1]": {"molecular_target": "Cruzipain (Trypanosoma cruzi) (UniProt P25779)", "sequence (P25779 123-467 limits assumed)": "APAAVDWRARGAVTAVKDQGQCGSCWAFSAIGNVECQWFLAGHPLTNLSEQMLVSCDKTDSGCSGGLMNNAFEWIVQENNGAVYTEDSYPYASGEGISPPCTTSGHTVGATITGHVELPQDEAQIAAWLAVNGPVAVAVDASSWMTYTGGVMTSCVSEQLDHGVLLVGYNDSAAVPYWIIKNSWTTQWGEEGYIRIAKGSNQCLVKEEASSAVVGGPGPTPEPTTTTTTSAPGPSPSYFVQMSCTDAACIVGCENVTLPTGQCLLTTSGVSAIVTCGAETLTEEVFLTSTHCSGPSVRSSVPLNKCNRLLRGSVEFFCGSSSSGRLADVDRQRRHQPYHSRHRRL", "experiment": "Inhibition of His-tagged recombinant Trypanosoma cruzi cruzain using Z-Phe-Arg-AMC as substrate assessed as ratio of Kinact to Ki preincubated for 5 mins at pH 5.5 by spectrofluorometric analysis"}, "[2]": {"molecular_target": "Cruzipain (Trypanosoma cruzi) (UniProt P25779)", "experiment": "Inhibition of His-tagged recombinant Trypanosoma cruzi cruzain using Z-Phe-Arg-AMC as substrate assessed as ratio of Kinact to Ki preincubated for 5 mins at pH 8 by spectrofluorometric analysis"}, "[3]": {"molecular_target": "T1, Cysteine proteinase 1 (Entamoeba histolytica) (UniProt Q01957)", "T1 sequence (whole entry)": "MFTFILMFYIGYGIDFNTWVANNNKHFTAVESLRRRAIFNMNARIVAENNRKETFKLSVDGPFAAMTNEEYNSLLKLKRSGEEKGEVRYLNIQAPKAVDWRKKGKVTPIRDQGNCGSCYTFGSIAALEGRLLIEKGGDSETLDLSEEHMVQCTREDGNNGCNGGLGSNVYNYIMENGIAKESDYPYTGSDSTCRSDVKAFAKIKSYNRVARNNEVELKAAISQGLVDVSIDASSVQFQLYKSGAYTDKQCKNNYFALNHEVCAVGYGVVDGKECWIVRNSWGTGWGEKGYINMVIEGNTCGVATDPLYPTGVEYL", "experiment": "Inhibition of Entamoeba histolytica cysteine protease1 using ZRR-AMC peptide as substrate assessed as release of AMC at 250 pM to 1 uM incubated for 15 mins by fluorometric analysis"}, "[4]": {"molecular_target": "Cruzipain (Trypanosoma cruzi) (UniProt P25779)", "experiment": "Ratio of Kinact/Ki at pH 5.5 to Kinact/Ki at pH 8 for inhibition of His-tagged recombinant Trypanosoma cruzi cruzain"}, "[5]": {"tested_on": "Rattus norvegicus", "experiment": "Drug level in Sprague-Dawley rat treated with WRR-668 at 3 mg/kg, iv over 8 hrs by LC-MS/MS analysis", "format": "ADME, organism-based", "details": "in vivo"}, "[6]": {"molecular_target": "Cruzipain (Trypanosoma cruzi) (UniProt P25779)", "experiment": "Ratio of Kinact/Ki at pH 8 to Kinact/Ki at pH 5.5 for inhibition of His-tagged recombinant Trypanosoma cruzi cruzain"}, "[7]": {"molecular_target": "Cytochrome P450 2D6 (Homo sapiens, UniProt P10635)", "sequence (P10635 whole entry)": "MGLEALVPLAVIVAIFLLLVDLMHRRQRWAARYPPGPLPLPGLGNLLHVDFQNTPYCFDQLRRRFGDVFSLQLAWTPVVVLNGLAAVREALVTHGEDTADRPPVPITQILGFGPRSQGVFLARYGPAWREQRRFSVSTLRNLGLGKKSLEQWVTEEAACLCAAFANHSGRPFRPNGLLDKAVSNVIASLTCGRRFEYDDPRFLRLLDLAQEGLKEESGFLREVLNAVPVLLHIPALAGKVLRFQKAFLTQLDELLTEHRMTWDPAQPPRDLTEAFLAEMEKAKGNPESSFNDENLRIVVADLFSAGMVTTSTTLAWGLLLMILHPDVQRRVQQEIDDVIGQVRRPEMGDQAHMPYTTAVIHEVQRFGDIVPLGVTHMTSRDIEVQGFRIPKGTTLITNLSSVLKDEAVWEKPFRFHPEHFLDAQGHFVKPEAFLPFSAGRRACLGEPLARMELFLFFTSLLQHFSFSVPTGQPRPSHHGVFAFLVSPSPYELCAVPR", "experiment": "Inhibition of CYP2D6 in human liver microsomes at 1 to 10 uM after 10 mins in presence of NADPH", "format": "ADME"}, "[8]": {"tested_on": "Trypanosoma cruzi", "experiment": "Antiparasitic activity against Trypanosoma cruzi CA-I/72 trypomastigote infected in mouse C2C12 cells after 72 hrs by DAPI-staining based microscopic analysis", "format": "functional, organism-based", "details": "CA-I/72, C2C12, 72 h"}, "[9]": {"tested_on": "Rattus norvegicus", "experiment": "Drug metabolism in Sprague-Dawley rat assessed as WRR-671 formation at 3 mg/kg, iv over 8 hrs by LC-MS/MS analysis", "format": "ADME, organism-based", "details": "in vivo"}, "[10]": {"experiment": "Stability of compound in mouse liver microsomes at 1 uM measured at 5 to 60 mins in presence of NADPH by LC-MS/MS analysis", "format": "ADME"}, "[11]": {"tested_on": "Liver microsome", "experiment": "Stability of compound in human liver microsomes at 1 uM measured at 5 to 60 mins in presence of NADPH by LC-MS/MS analysis", "format": "ADME"}, "[12]": {"tested_on": "Liver microsome", "experiment": "Stability of compound in rat liver microsomes at 1 uM measured at 5 to 60 mins in presence of NADPH by LC-MS/MS analysis", "format": "ADME"}, "[13]": {"molecular_target": "Cytochrome P450 2C9 (Homo sapiens, UniProt P11712)", "sequence (P11712 whole entry)": "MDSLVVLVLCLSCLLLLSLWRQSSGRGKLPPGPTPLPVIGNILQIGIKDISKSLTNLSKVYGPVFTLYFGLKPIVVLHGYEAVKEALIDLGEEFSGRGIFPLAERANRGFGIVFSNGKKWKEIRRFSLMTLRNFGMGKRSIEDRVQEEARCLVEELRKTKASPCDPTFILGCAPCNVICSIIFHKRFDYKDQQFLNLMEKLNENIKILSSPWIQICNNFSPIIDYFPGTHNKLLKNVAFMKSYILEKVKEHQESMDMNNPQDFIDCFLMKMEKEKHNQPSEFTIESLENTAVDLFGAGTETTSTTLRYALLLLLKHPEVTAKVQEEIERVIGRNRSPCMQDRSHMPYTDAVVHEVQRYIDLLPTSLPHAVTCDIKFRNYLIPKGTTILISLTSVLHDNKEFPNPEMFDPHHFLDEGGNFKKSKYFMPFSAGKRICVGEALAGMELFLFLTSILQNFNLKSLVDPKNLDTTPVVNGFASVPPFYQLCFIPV", "experiment": "Inhibition of CYP2C9 in human liver microsomes at 1 to 10 uM after 10 mins in presence of NADPH", "format": "ADME"}, "[14]": {"tested_on": "Plasma", "experiment": "Drug degradation in C57BL/6 mouse plasma assessed as proteolytic cleavage in presence of EDTA by LC-MS/MS analysis", "format": "ADME, cell-free"}}, "note": "Activity calls are given as the source filed them. The calls are words filed in the database; no cut-off is given here.", "data": [{"smiles": "CN1CCN(C(=O)N[C@@H](CCCNC(=N)N)C(=O)N[C@H](/C=C/S(=O)(=O)c2ccccn2)CCc2ccccc2)CC1", "values": [{"measurement": "Ratio", "setting": "[1]", "result": 8100, "unit": "M⁻¹ s⁻¹"}, {"measurement": "Ratio", "setting": "[2]", "result": 3100, "unit": "M⁻¹ s⁻¹"}, {"measurement": "inhibition", "setting": "[3]", "result": "Active"}]}, {"smiles": "CN1CCN(C(=O)N[C@@H](CCCONC(=N)N)C(=O)N[C@H](/C=C/S(=O)(=O)c2ncccn2)CCc2ccccc2)CC1", "values": [{"measurement": "Ratio", "setting": "[4]", "result": "> 5"}, {"measurement": "Ratio", "setting": "[1]", "result": 320000, "unit": "M⁻¹ s⁻¹"}, {"measurement": "Ratio", "setting": "[2]", "result": 1500, "unit": "M⁻¹ s⁻¹"}]}, {"smiles": "CN1CCN(C(=O)N[C@@H](CCCO)C(=O)N[C@H](/C=C/S(=O)(=O)c2ccccc2)CCc2ccccc2)CC1", "values": [{"measurement": "Drug metabolism", "setting": "[5]", "result": "metabolite_detected"}]}, {"smiles": "CN1CCN(C(=O)N[C@@H](CCCNC(=N)N)C(=O)N[C@H](/C=C/S(=O)(=O)c2ccccc2)CCc2ccccc2)CC1", "values": [{"measurement": "Ratio", "setting": "[6]", "result": "> 3"}, {"measurement": "Ratio", "setting": "[1]", "result": 36600, "unit": "M⁻¹ s⁻¹"}, {"measurement": "Ratio", "setting": "[2]", "result": 113000, "unit": "M⁻¹ s⁻¹"}]}, {"smiles": "CN1CCN(C(=O)N[C@@H](CCCCNC(=N)N)C(=O)N[C@H](/C=C/S(=O)(=O)c2ccccc2)CCc2ccccc2)CC1", "values": [{"measurement": "Ratio", "setting": "[6]", "result": "> 3"}, {"measurement": "Ratio", "setting": "[1]", "result": 11000, "unit": "M⁻¹ s⁻¹"}, {"measurement": "Ratio", "setting": "[2]", "result": 59700, "unit": "M⁻¹ s⁻¹"}]}, {"smiles": "CN1CCN(C(=O)N[C@@H](CCCONC(=N)N)C(=O)N[C@H](/C=C/S(=O)(=O)c2ccccc2)CCc2ccccc2)CC1.Cl.Cl", "values": [{"measurement": "inhibition (INH)", "setting": "[7]", "result": "Active"}, {"measurement": "Ratio", "setting": "[1]", "result": 43300, "unit": "M⁻¹ s⁻¹"}, {"measurement": "Ratio", "setting": "[2]", "result": 53400, "unit": "M⁻¹ s⁻¹"}]}, {"smiles": "CN1CCN(C(=O)N[C@@H](Cc2ccccc2)C(=O)N[C@H](/C=C/S(=O)(=O)c2ccccc2)CCc2ccccc2)CC1", "values": [{"measurement": "Ratio", "setting": "[4]", "result": "> 5"}, {"measurement": "Ratio", "setting": "[1]", "result": 158000, "unit": "M⁻¹ s⁻¹"}, {"measurement": "Ratio", "setting": "[2]", "result": 32500, "unit": "M⁻¹ s⁻¹"}]}, {"smiles": "CN1CCN(C(=O)N[C@@H](CCONC(=N)N)C(=O)N[C@H](/C=C/S(=O)(=O)c2ccccc2)CCc2ccccc2)CC1", "values": [{"measurement": "Ratio", "setting": "[1]", "result": 93100, "unit": "M⁻¹ s⁻¹"}, {"measurement": "Ratio", "setting": "[2]", "result": 138000, "unit": "M⁻¹ s⁻¹"}]}, {"smiles": "CONC(=N)NCCC[C@H](NC(=O)N1CCN(C)CC1)C(=O)N[C@H](/C=C/S(=O)(=O)c1ccccc1)CCc1ccccc1", "values": [{"measurement": "Ratio", "setting": "[6]", "result": "> 3"}, {"measurement": "EC50", "setting": "[8]", "result": 269, "unit": "nM"}, {"measurement": "inhibition (INH)", "setting": "[7]", "result": "Active"}, {"measurement": "Ratio", "setting": "[1]", "result": 9100, "unit": "M⁻¹ s⁻¹"}, {"measurement": "Ratio", "setting": "[2]", "result": 65700, "unit": "M⁻¹ s⁻¹"}]}, {"smiles": "CN1CCN(C(=O)N[C@@H](CCCONC(=N)N)C(=O)N[C@H](/C=C/S(=O)(=O)c2ccccn2)CCc2ccccc2)CC1", "values": [{"measurement": "Drug metabolism", "setting": "[9]", "result": "metabolite_detected"}, {"measurement": "Stability", "setting": "[10]", "result": "Stable"}, {"measurement": "inhibition (INH)", "setting": "[7]", "result": "Active"}, {"measurement": "Ratio", "setting": "[1]", "result": 214000, "unit": "M⁻¹ s⁻¹"}, {"measurement": "Ratio", "setting": "[2]", "result": 308000, "unit": "M⁻¹ s⁻¹"}, {"measurement": "inhibition", "setting": "[3]", "result": "Active"}, {"measurement": "Stability", "setting": "[11]", "result": "Stable"}, {"measurement": "Stability", "setting": "[12]", "result": "Stable"}]}, {"smiles": "CONC(=N)NCCC[C@H](NC(=O)N1CCN(C)CC1)C(=O)N[C@H](/C=C/S(=O)(=O)c1ccccn1)CCc1ccccc1", "values": [{"measurement": "inhibition (INH)", "setting": "[13]", "result": "Active"}, {"measurement": "Ratio", "setting": "[6]", "result": "> 3"}, {"measurement": "Stability", "setting": "[10]", "result": "Stable"}, {"measurement": "inhibition (INH)", "setting": "[7]", "result": "Active"}, {"measurement": "Ratio", "setting": "[1]", "result": 25000, "unit": "M⁻¹ s⁻¹"}, {"measurement": "Ratio", "setting": "[2]", "result": "1.17e+06", "unit": "M⁻¹ s⁻¹"}, {"measurement": "inhibition", "setting": "[3]", "result": "Active"}, {"measurement": "Stability", "setting": "[11]", "result": "Stable"}, {"measurement": "Stability", "setting": "[14]", "result": "Unstable"}, {"measurement": "Stability", "setting": "[12]", "result": "Stable"}]}]}
